Assay results taken from patent US11160865B2, “Liquid pharmaceutical composition for the delivery of active ingredients” (NOVALIQ GMBH, priority 2010, dated 2021).
Where “and” joins values, the source holds several entries; their conditions need not be identical. Equal values may be shown once. Entries after “also recorded” stand apart in the source; their conditions may differ. Read-outs that look alike come from different tables or passages of the source.

Legend:
[1] = test system: rabbit eyes (cornea); experiment: Ex-vivo eye irritation test (EVEIT), healing of corneal abrasion lesions; details: for Final size of corneal lesions: Example 2, after 3 days of hourly dosing 12 h/day, runs are replicates; for starting area of corneal lesions: Example 3; for outcome of corneal lesions: Example 3, after 2 or 3 days of exposure
Experimental: (§1) The physiological tolerability of F4H5 and of a mixture of 1 wt.-% ethanol in F4H5 was evaluated in an ex-vivo eye irritation test (EVEIT) using rabbit eyes taken from freshly sacrificed animals. The eyes were fastened in chambers coupled micropump systems which continuously supplied the eyes with cultivation medium (Minimal Essential Medium, MEM T031-05) without fetal calf serum. The vitality of the eyes was monitored by regularly measuring the concentration of lactate and glucose in the chamber eluate. The corneal surface of the eyes was damaged by abrasion, using a dental ceramic abrasive (638XF, Meisinger). For each eye, four lesions of 3.0 to 4.5 mm^2 were prepared.
(§2) To evaluate the effect of F4H5 and F4H5 with 1 wt.-% ethanol on the cornea, an amount of approx. 0.25 to 0.50 μl of the respective test substance was dropped onto the centre of a cornea once every hour over a period of 12 hours, followed by a 12 hour resting period in which the cornea was submersed in culture medium to simulate a closed lid during a night phase. […] Each test was performed over a period of 3 days. The effects were observed by optical coherence tomography (OCT), by digitally determining the dimensions of the lesions after staining with fluorescein, and finally by a histological evaluation of the corneal epithelium and endothelium at the end of each experiment.
(§3) Again, minimal essential medium (MEM) was included as negative control, benzalkonium chloride solution (0.01%) as positive control, and hyaluronic acid solution (0.1%) as a reference.

[2] = test system: rabbit eyes (cornea)
Experimental: as §1, §2, §3

[3] = Example 3, within 3 days, first set of experiments

CCCCCC(F)(F)C(F)(F)C(F)(F)C(F)(F)F [F4H5, 1-perfluorobutylpentane] was tested, and the “effect on healing of abraded corneal lesions” value (shortened to “effect on healing”) ([1]; Example 2) was “positive effect on the healing of damaged cornea similar to that of hyaluronic acid; also recorded: Substantial healing”, the “morphological and histological evaluation of cornea at end of test” value ([1]; Example 2) was “healed very well” and the “penetration into the cornea by OCT imaging” value ([1]; Example 2) was “no indication of penetration”. The “physiological tolerability” value ([1]; Example 2) was “better tolerated than culture medium” and the “Final size of corneal lesions” value [1] was 0.19 mm^2 and 1.01 mm^2 and 0.06 mm^2.

CCCCCCCCC(F)(F)C(F)(F)C(F)(F)C(F)(F)C(F)(F)C(F)(F)F [F6H8, 1-perfluorohexyloctane] was tested, and the “outcome of corneal lesions” value [2] was “complete remission” and the “starting area of corneal lesions” value [2] was 10.54-16.65 mm^2.

For benzalkonium chloride [BAC], the “effect on healing” value ([1]; Example 2) was “rapid growth of the lesions”, the “morphological and histological evaluation of cornea at end of test” value ([1]; Example 2) was “complete disintegration of the corneal epithelium” and the “starting area of corneal lesions” value [1] was 11.23 mm^2. The “outcome of corneal lesions” value [1] was “complete epithelial loss”.

For hyaluronic acid [HA], the “effect on healing” value ([1]; Example 2) was “Substantial healing”, the “morphological and histological evaluation of cornea at end of test” value ([1]; Example 2) was “healed very well” and the “Final size of corneal lesions” value [1] was 0.36 mm^2 and 0.24 mm^2 and 0.00 mm^2. The “starting area of corneal lesions” value [1] was 12.16 mm^2, the “outcome of corneal lesions” value [1] was “complete healing” and the “area of corneal damage after treatment” value [1, 3] was 0.32 mm^2. For the same compound, the “reduction of area of corneal damage” value [1, 3] was 97.4%.
